Measured values published in patent US11987570B1, “10-(2-hydroxyethyl)-9-(2-hydroxypyridin-3-yl)-3,4,6,7,9,10-hexahydroacridine-1,8(2H,5H)-dione as an antimicrobial compound” (KING FAISAL UNIVERSITY, priority 2023, dated 2024).

What was measured:
Type in all cases: cell-based
Conditions in all cases: after 10, 20, 40 and 60 minutes at all dilutions 1:100, 1:200, 1:400, 1:800
[1] = test system: Staphylococcus aureus; assay: Antimicrobial screening by agar dilution, Staphylococcus aureus
Experimental: (§1) The antibacterial properties of the synthesized compound (10-(2-hydroxyethyl)-9-(2-hydroxypyridin-3-yl)-3,4,6,7,9,10-hexahydroacridine-1,8(2H,5H)-dione) were studied by the method of agar dilution. Test solutions of each compound was prepared in concentration of 1% using dimethylformamide as a solvent then they are diluted in physiological solution to obtain the final experimental dilutions 1:100, 1:200, 1:400, 1:800. The effect of these substances are compared with furacillin in a controllable study. The testing microbes used were gram positive bacteria Staphylococcus aureus, gram negative bacteria Pseudomonas aeruginosa and Escherichia coli and Candida albicans fungus. The experiments used for this survey were meat-pentonlu agar (EPA) for cultivation of bacteria and Saburo environment for the fungus. Each experiment used 1 mL of test solution on each plate […]. Two drops of emulsified with microbes feel were added. All experimental samples were taken from the agar after 10, 20, 40, 60 minutes in the environment on the basis of Patrk planted. The bacteria were cultivated at a temperature of 37° C. for 1 day and the mushroom was kept in a thermostat for 2 hours at a temperature of 28° C. Then results were checked.

[2] = test system: Escherichia coli; assay: Antimicrobial screening by agar dilution, Escherichia coli
Experimental: as §1

[3] = test system: Pseudomonas aeruginosa; assay: Antimicrobial screening by agar dilution, Pseudomonas aeruginosa
Experimental: as §1

[4] = test system: Candida albicans; assay: Antimicrobial screening by agar dilution, Candida albicans
Experimental: as §1

Measured: inhibition activity

O=C1CCCC2=C1C(c1cccnc1O)C1=C(CCCC1=O)N2CCO [10-(2-hydroxyethyl)-9-(2-hydroxypyridin-3-yl)-3,4,6,7,9,10-hexahydroacridine-1,8(2H,5H)-dione]
highest inhibition activity: all assays above
